The target in the assay is T1, IRAK4 (Homo sapiens, UniProt Q9NWZ3).
T1 construct: Degradation of IRAK4 in OCI-LY10 was quantitatively measured using Meso Scale Discovery technology; endogenous in cells; host or cells: OCI-LY10
T1 sequence (Q9NWZ3 1-460): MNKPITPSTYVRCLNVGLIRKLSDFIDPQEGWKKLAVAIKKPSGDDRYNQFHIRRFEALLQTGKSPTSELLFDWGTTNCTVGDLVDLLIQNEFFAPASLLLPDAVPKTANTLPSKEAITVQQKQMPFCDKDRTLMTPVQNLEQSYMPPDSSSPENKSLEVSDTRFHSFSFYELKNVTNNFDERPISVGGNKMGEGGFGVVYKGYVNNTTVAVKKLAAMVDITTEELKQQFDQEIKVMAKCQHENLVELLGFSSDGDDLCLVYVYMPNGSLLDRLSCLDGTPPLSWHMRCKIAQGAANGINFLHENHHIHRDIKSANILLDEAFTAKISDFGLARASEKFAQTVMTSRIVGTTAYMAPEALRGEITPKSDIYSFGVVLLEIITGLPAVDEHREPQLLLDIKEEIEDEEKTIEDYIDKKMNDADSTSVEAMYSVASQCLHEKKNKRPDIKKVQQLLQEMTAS
Description: IRAK4 MSD Degradation in OCI-LY10. The following applies: OCI-LY10 cells, MSD. It counts as cell-based. In a few lines:
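DC50, from a three-parameter logistic fit and reported as letter bins A (<0.01 μM), B, C, D (>0.2 μM or not tested), reflects IRAK4 loss measured by MSD electrochemiluminescence in OCI-LY10 lysates. Treatment: 8 doses, 1:3 steps, top 1 to 10 μM, 4 to 24 h, 37 °C.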

[1] abbreviates: 4 hrs incubation, read-out: IRAK4 degradation in OCI-LY10 at 4 hrs: DC50.
Where [2] appears, read: 24 hrs incubation, read-out: IRAK4 degradation in OCI-LY10 at 24 hrs: DC50.

SMILES strings stand for the structures. Where two headings read alike, the source gives them in different places.

The term DC50 denotes the concentration giving 50% degradation. As for `Cn1c(=O)n(C2CCC(=O)NC2=O)c2cccc(N3CCC4(CCN(C[C@H]5CC[C@H](n6cc7cc(NC(=O)c8cncc(C#N)c8)c(C(F)F)cc7n6)CC5)CC4)CC3)c21` (stereo partly shown) [I-187], the DC50 was > 200 nM under setting [1] and > 200 nM under setting [2].
As to `Cn1c(=O)n(C2CCC(=O)NC2=O)c2cccc(N3CCC4(CCN(C[C@H]5CC[C@@H](n6cc(NC(=O)c7cnn8ccc(N9CC%10C[C@@H]9CO%10)nc78)c(C(F)F)n6)CC5)CC4)CC3)c21` (stereo partly shown) [I-188], the 50% degradation concentration (DC50) was < 10 nM under setting [1] and > 200 nM under setting [2].
Taken in the same sequence, the figures for `Cn1c(=O)n(C2CCC(=O)NC2=O)c2cccc(N3CCN(CC4CCC(n5cc(NC(=O)c6cnn7ccc(N8CC9C[C@@H]8CO9)nc67)c(C(F)F)n5)CC4)CC3)c21` (stereo partly shown) [I-189] were 10 to 100 nM and > 200 nM.
As to `Cn1c(=O)n(C2CCC(=O)NC2=O)c2cccc(CN3CCN(C[C@H]4CC[C@H](n5cc(NC(=O)c6cnn7ccc(N8CC9C[C@@H]8CO9)nc67)c(C(F)F)n5)CC4)CC3)c21` (stereo partly shown) [I-190], the DC50 runs as follows: under setting [1], 10 to 100 nM; under setting [2], > 200 nM.
Take `COCc1cncc(C(=O)Nc2cc3cn([C@H]4CC[C@H](CN5CCC6(CC5)CCN(c5cccc7c5n(C)c(=O)n7C5CCC(=O)NC5=O)CC6)CC4)nc3cc2OC)c1` (stereo partly shown) [I-191]: the 50% degradation concentration (DC50) reads like this: under setting [1], 10 to 100 nM; under setting [2], > 200 nM.
On the same counts, the results for `CC([C@H]1CC[C@H](n2cc(NC(=O)c3cnn4ccc(C5CC6C[C@@H]5CO6)nc34)c(C(F)F)n2)CC1)N1CCC(OCC#Cc2cccc3c2n(C)c(=O)n3C2CCC(=O)NC2=O)CC1` (stereo partly shown) [I-192] are > 200 nM and > 200 nM.
On the same counts, the results for `Cn1c(=O)n(C2CCC(=O)NC2=O)c2cccc(C#CCOC3CCN(C(C#N)[C@H]4CC[C@H](n5cc(NC(=O)c6cnn7ccc(N8C[C@H]9C[C@@H]8CO9)nc67)c(C(F)F)n5)CC4)CC3)c21` (stereo partly drawn) [I-193, N-[1-[4-[cyano-[4-[3-[1-(2,6-dioxo-3-piperidyl)-3-methyl-2-oxo-benzimidazol-4-yl]prop-2-ynoxy]-1-piperidyl]methyl]cyclohexyl]-3-(difluoromethyl)pyrazol-4-yl]-5-[(1R,4R)-2-oxa-5-azabicyclo[2.2.1]heptan-5-yl]pyrazolo[1,5-a]pyrimidine-3-carboxamide] are > 200 nM and > 200 nM.
On the same counts, the results for `CC([C@H]1CC[C@H](n2cc(NC(=O)c3cnn4ccc(N5C[C@H]6C[C@@H]5CO6)nc34)c(C(F)F)n2)CC1)N1CCN(CC#Cc2cccc3c2n(C)c(=O)n3C2CCC(=O)NC2=O)CC1` (stereo partly shown) [I-194] are > 200 nM and > 200 nM.
Regarding `CC([C@H]1CC[C@H](n2cc(NC(=O)c3cnn4ccc(N5C[C@H]6C[C@@H]5CO6)nc34)c(C(F)F)n2)CC1)N1CCN(CCCc2cccc3c2n(C)c(=O)n3C2CCC(=O)NC2=O)CC1` (stereo partly shown) [I-195], the half-maximal degradation concentration (DC50) was > 200 nM under setting [1] and > 200 nM under setting [2].
Take `Cn1c(=O)n(C2CCC(=O)NC2=O)c2cccc(C#CCN3CCN(C(C#N)[C@H]4CC[C@H](n5cc(NC(=O)c6cnn7ccc(N8C[C@H]9C[C@@H]8CO9)nc67)c(C(F)F)n5)CC4)CC3)c21` (stereo partly shown) [I-196]: the 50% degradation concentration (DC50) under setting [1] was > 200 nM and the DC50 under setting [2] was in the range of 10 to 100 nM.
On the same counts, the results for `Cn1c(=O)n(C2CCC(=O)NC2=O)c2cccc(CCCN3CCN(C(C#N)[C@H]4CC[C@H](n5cc(NC(=O)c6cnn7ccc(N8C[C@H]9C[C@@H]8CO9)nc67)c(C(F)F)n5)CC4)CC3)c21` (stereo partly shown) [I-197] are 10 to 100 nM and > 200 nM.
On the same counts, the results for `O=C1CCC(c2ccc(C#CCOC3CCN(C[C@H]4CC[C@H](n5cc(NC(=O)c6cnn7ccc(N8C[C@H]9C[C@@H]8CO9)nc67)c(C(F)F)n5)CC4)CC3)cc2)C(=O)N1` (stereo partly shown) [I-198] are 10 to 100 nM and 10 to 100 nM.
Taken in the same sequence, the figures for `O=C1CCC(c2cccc(C#CCOC3CCN(C[C@H]4CC[C@H](n5cc(NC(=O)c6cnn7ccc(N8C[C@H]9C[C@@H]8CO9)nc67)c(C(F)F)n5)CC4)CC3)c2)C(=O)N1` (stereo partly shown) [I-199] were > 200 nM and 10 to 100 nM.
Consider `Cn1c(=O)n(C2CCC(=O)NC2=O)c2cccc(N3CCN([C@H]4CC[C@H](n5cc(NC(=O)c6cnn7ccc(N8C[C@H]9C[C@@H]8CO9)nc67)c(C(F)F)n5)CC4)CC3)c21` (stereo partly shown) [I-200], for which the DC50 was 10 to 100 nM under setting [1] and > 200 nM under setting [2].
Taken in the same sequence, the figures for `Cn1c(=O)n(C2CCC(=O)NC2=O)c2cccc(C3CCN(C4CCN([C@H]5CC[C@H](n6cc(NC(=O)c7cnn8ccc(N9C[C@H]%10C[C@@H]9CO%10)nc78)c(C(F)F)n6)CC5)CC4)CC3)c21` (stereo partly shown) [I-202] were < 10 nM and > 200 nM.
Taken in the same sequence, the figures for `Cn1c(=O)n(C2CCC(=O)NC2=O)c2cccc(N3CCC(N4CCN([C@H]5CC[C@H](n6cc(NC(=O)c7cnn8ccc(N9C[C@H]%10C[C@@H]9CO%10)nc78)c(C(F)F)n6)CC5)CC4)CC3)c21` (stereo partly shown) [I-203] were > 200 nM and > 200 nM.
Taken in the same sequence, the figures for `COc1cc2nc([C@H]3CC[C@H](CN4CCC5(CC4)CCN(c4cccc6c4n(C)c(=O)n6C4CCC(=O)NC4=O)CC5)CC3)ccc2cc1NC(=O)c1cncc(C#N)c1` (stereo partly shown) [I-204] were < 10 nM and > 200 nM.
Consider `Cn1c(=O)n(C2CCC(=O)NC2=O)c2cccc(C#CCOC3CCN(C[C@H]4CC[C@H](c5nc(C(F)F)c(NC(=O)c6cnn7ccc(N8C[C@H]9C[C@@H]8CO9)nc67)s5)CC4)CC3)c21` (stereo partly shown) [I-205], for which the DC50 runs as follows: under setting [1], > 200 nM; under setting [2], > 200 nM.
Consider `Cn1c(=O)n(C2CCC(=O)NC2=O)c2cccc(C#CCOC3CCN(C[C@H]4CC[C@H](c5nc(C(F)F)c(NC(=O)c6cnn7ccc(N8C[C@H]9C[C@@H]8CO9)nc67)o5)CC4)CC3)c21` (stereo partly shown) [I-206], for which the 50% degradation concentration (DC50) runs as follows: under setting [1], > 200 nM; under setting [2], > 200 nM.
For the compound `Cn1c(=O)n(C2CCC(=O)NC2=O)c2cccc(C#CCOC3CCN(CC4CCN(c5nc(C(F)F)c(NC(=O)c6cnn7ccc(N8C[C@H]9C[C@@H]8CO9)nc67)s5)CC4)CC3)c21` (stereo partly shown) [I-207], the DC50 runs as follows: under setting [1], > 200 nM; under setting [2], > 200 nM.
Regarding `Cn1c(=O)n(C2CCC(=O)NC2=O)c2cccc(C#CCOC3CCN(CC4CCN(c5nc(C(F)F)c(NC(=O)c6cnn7ccc(N8C[C@H]9C[C@@H]8CO9)nc67)o5)CC4)CC3)c21` (stereo partly shown) [I-208], the half-maximal degradation concentration (DC50) reads like this: under setting [1], > 200 nM; under setting [2], > 200 nM.
Take `O=C1CCN(c2cccc(C#CCOC3CCN(C[C@H]4CC[C@H](n5cc(NC(=O)c6cnn7ccc(N8C[C@H]9C[C@@H]8CO9)nc67)c(C(F)F)n5)CC4)CC3)c2)C(=O)N1` [I-209]: the 50% degradation concentration (DC50) is, setting by setting: under setting [1], > 200 nM; under setting [2], > 200 nM.
With `Cn1c(=O)n(C2CCC(=O)NC2=O)c2cccc(C#CCOC3CCN(C[C@H]4CC[C@H](n5cc(NC(=O)c6cccc(C(F)(F)F)n6)c(C(F)F)n5)CC4)CC3)c21` (stereo partly shown) [I-210], the DC50 runs as follows: under setting [1], > 200 nM; under setting [2], > 200 nM.
Take `Cn1c(=O)n(C2CCC(=O)NC2=O)c2cccc(C#CCN3CCN(C[C@H]4CC[C@H](n5cc(NC(=O)c6cccc(C(F)(F)F)n6)c(C(F)F)n5)CC4)CC3)c21` (stereo partly shown) [I-211]: the half-maximal degradation concentration (DC50) was > 200 nM under setting [1] and > 200 nM under setting [2].
For `Cn1c(=O)n(C2CCC(=O)NC2=O)c2cccc(CCCOC3CCN(C[C@H]4CC[C@H](n5cc(NC(=O)c6cccc(C(F)(F)F)n6)c(C(F)F)n5)CC4)CC3)c21` (stereo partly shown) [I-212], the DC50 by setting is: under setting [1], > 200 nM; under setting [2], > 200 nM.
Turning to `Cn1c(=O)n(C2CCC(=O)NC2=O)c2cccc(CCCN3CCN(C[C@H]4CC[C@H](n5cc(NC(=O)c6cccc(C(F)(F)F)n6)c(C(F)F)n5)CC4)CC3)c21` (stereo partly shown) [I-213], the 50% degradation concentration (DC50) was > 200 nM under setting [1] and > 200 nM under setting [2].

These data come from patent US12091411B2, “IRAK degraders and uses thereof” (Kymera Therapeutics, Inc., priority 2022, dated 2024).
